Data on 24 compounds can be found in patent publication US6903132B2, “Non-peptide GnRH agents, pharmaceutical compositions and methods for their use” (Agouron Pharmaceuticals, Inc., priority 2002, dated 2005).

Each structure is given as a SMILES string. Some results are limits rather than exact numbers.

This assay deals with T1, human GnRH receptors (Homo sapiens, UniProt P30968).
T1 construct: expressed in transfected cells; host or cells: HEK 293
T1 sequence (P30968 1-328): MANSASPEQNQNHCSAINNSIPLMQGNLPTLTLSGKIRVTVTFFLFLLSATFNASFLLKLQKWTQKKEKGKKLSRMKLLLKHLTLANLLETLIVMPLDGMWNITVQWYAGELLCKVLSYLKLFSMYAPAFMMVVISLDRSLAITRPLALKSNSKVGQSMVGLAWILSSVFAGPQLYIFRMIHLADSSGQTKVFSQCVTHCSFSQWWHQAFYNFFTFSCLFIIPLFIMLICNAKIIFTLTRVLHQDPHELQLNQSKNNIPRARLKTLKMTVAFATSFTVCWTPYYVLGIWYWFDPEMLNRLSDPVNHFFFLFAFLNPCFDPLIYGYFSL
Kind of assay: Radioligand binding assay: inhibition of binding of 125I-GnRH-A to GnRH receptors (membranes). As to conditions: Human GnRH receptor; competition with 125I-GnRH-A; Ki calculated from IC50 (Cheng et al.). Here is the method: HEK 293 cells stably transfected with mouse or human GnRH receptors as described above are grown in Dulbecco's high-glucose, modified Eagle's medium (DMEM) supplemented with 0.2% G418, 10% fetal bovine serum (FBS) and 100U/mL penicillin/streptomycin. GH3 cells stably transfected with the rat GnRH receptor (GGH3) were provided by Dr. William Chin (Harvard Medical School, Boston, Mass.). These cells are extensively characterized previously (Kaiser et al., 1997). The cells are grown in low glucose DMEM containing: 100U/mL penicillin/streptomycin, 0.6% G418 and 10% heat-inactivated FBS.
HEK 293 cells containing mouse or human receptors, or rat pituitaries (Pel Freez Biologicals, Rogers, Ark.) are homogenized in buffer A containing: 50 mM Tris (pH 7.4), 0.32 M sucrose, 2 mM EGTA, 1 mM PMSF, 5 μg/ml aprotinen, 5 μg/ml Pepstatin A, and 1 μg/ml leupeptin. Homogenized cells are centrifuged at 4° C. at 20,000×g for 25 minutes, re-suspended in buffer A and re-centrifuged at 4° C. at 20,000×g for an additional 25 minutes. Total membrane protein was determined with a BCA kit (Pierce, Rockford, Ill.). Membranes are stored at −70° C. at a final membrane protein concentration of approximately 5 mg/ml.
The radioiodinated agonist analog of GnRH, [des-Gly^10, D-Ala^6]GnRH ethylamide (^125I-GnRH-A), is used as the radioligand. One μg of GnRH-A diluted in 0.5 M phosphate buffer (pH 7.4) is added to an lodogen®-coated borosilicate glass tube (Pierce, Rockford, Ill.) containing 35 μl of 0.05 M phosphate buffer (pH 7.4-7.6) and 1 mCi of Na[^125I]. The reaction mixture is vortexed and incubated for 1 minute at room temperature. After one minute, the mixture is vortexed and allowed to incubate for an additional minute. 2 ml of 0.5 M acetic acid/1% BSA is added to the reaction tube and the mixture is added to a C18 Sep-Pak cartridge. The cartridge is washed with subsequent washes of 5 ml H2O and 5 ml 0.5 M acetic acid and then eluted with 5×1 ml of 60%CH3CN/40% 0.5 M acetic acid. The eluate is diluted with 3× volume of HPLC buffer A (0.1% TFA in H2O) and loaded onto a C18 column. The iodinated product is eluted over 20-25 min with a gradient of 25-100% CH3CN containing 0.1% TFA. The radioactive fractions (750 μl/fraction) are collected into clean polypropylene tubes containing 100 μl of 10% BSA. Fractions are assessed for biological activity by radiolig and binding. Specific activity of the radioligand was approximately 2200 Ci/mmol.
Membranes are diluted to 0.01-0.5 mg/ml (depending upon the species of receptor) with assay buffer containing 50 mM HEPES (pH 7.4), 1 mM EDTA, 2.5 mM MgCl2, and 0.1% BSA. Membranes (diluted to utilize similar receptor numbers between assays) are incubated with approximately 0.04-0.06 nM ^125I-GnRH-A in the presence or absence of competing agents (0.1-10,000 nM) in a total volume of 200 μl in 96-well polypropylene plates for 1 hour at room temperature. Assays are stopped by rapid filtration onto 96-well GF/C filters soaked in 0.1% polyethylenimine (PEI) utilizing a Packard 96-well cell harvester. Filters are washed three times with ice-cold PBS (50 mM NaPO4, 0.9% NaCl, 2 mM MgCl2, and 0.02% NaN3, pH 7.4). 35 μl of scintillation cocktail is added to each filter well and filters are counted on a Packard Topcount. Control dose-response curves are generated to GnRH (0.1 nM-100 nM) in each competition binding experiment. Ki values were calculated from IC50 values according to Cheng et al., Biochemical Pharmacol. 22: 3099-3108, 1973. [formula]
For orientation: Ki means a dissociation constant, usually derived from enzyme kinetics or from competition with a known ligand. `Cc1cc2c(cc1Oc1ccc(C(=O)NNc3ncc(C(F)(F)F)cc3Cl)o1)C(C)(C)OC2` [Example N1, 5-(3,3,6-Trimethyl-1,3-dihydro-isobenzofuran-5-yloxy)-furan-2-carboxylic acid N′-(chloro-trifluoromethyl-pyridin-2-yl)-hydrazide]: the inhibition constant (Ki) is 1140 nM.
Consider `CCN(CC)C(=O)C1(c2ccc(C)c(Cc3ccc(C(=O)NNc4cc(C)c5c(C)nn(C)c5n4)o3)c2)CC1` [Example J20, N,N-diethyl-1-{4-methyl-3-[(5-{[2-(1,3,4-trimethyl-1H-pyrazolo[3,4-b]pyridin-6-yl)hydrazino]carbonyl}-2-furyl)methyl]phenyl} cyclopropanecarboxamide], for which the Ki was 1410 nM.
Regarding `COc1cccc(OC)c1CNNC(=O)c1ccc(Cc2cc3c(cc2C)C(C)(C)CCC3(C)C)o1` [Example A2], the Ki was 700 nM.
Next, `COc1cc(OC)c(Cc2ccc(C(=O)NNc3cc(C)c4c(C)nn(C)c4n3)o2)c(OC)c1` [Example J10, 5-(2,4,6-trimethoxybenzyl)-N-(1,3,4-trimethyl-1H-pyrazolo[3,4-b]pyridin-6-yl)-2-furohydrazide]: 1690 nM.
The figure for `Cc1ccccc1Oc1ccc(C(=O)NNc2cc(C)c3c(C)nn(C)c3n2)o1` [Example I4, 5-(2-Methylphenoxy)-N′-(1,3,4-trimethyl-1H-pyrazolo[3 ,4-b]pyridin-6-yl)-2-furohydrazide] is 980 nM; for `COc1cc(Cc2ccc(C(=O)NNc3cc(C)c4c(C)nn(C)c4n3)o2)c(OC)c(OC)c1` [Example J8, 5-(2,3,5-trimethoxybenzyl)-N′-(1,3,4-trimethyl-1H-pyrazolo[3,4-b]pyridin-6-yl)-2-furohydrazide] it is 3890 nM; for `COc1cc(OC)c(CNNC(=O)c2ccc(Cc3cc4c(cc3C)C(C)(C)CCC4(C)C)o2)c(OC)c1` [Example A1, 5-[(3,5,5,8,8-Pentamethyl-5,6,7,8-tetrahydro-2-naphthalenyl)methyl]-N′-(2,4,6-trimethoxybenzyl)-2-furohydrazide] it is 1840 nM.
As for `Cc1nc2ccccc2c(Cl)c1Cc1ccc(C(=O)NNc2cc(C)c3c(C)nn(C)c3n2)o1` [Example K1, 5-(4-Chloro-2-methyl-quinolin-3-ylmethyl)-furan-2-carboxylic acid N′-(1,3,4-trimethyl-1H-pyrazolo[3,4-b]pyridin-6-yl)-hydrazide], the Ki is 4430 nM.
Next, `Cc1cc2c(cc1Cc1ccc(C(=O)NNc3ccc(C(F)(F)F)cn3)o1)C(C)(C)OC2(C)C` [Example E5, 5-(1,1,3,3,6-Pentamethyl-1,3-dihydro-isobenzofuran-5-ylmethyl)-furan-2-carboxylic acid N′-(5-trifluoromethyl-pyridin-2-yl)-hydrazide]: 390 nM; `Cc1ccc(C)c(Cc2ccc(C(=O)NNc3cc(C)c4c(C)nn(C)c4n3)o2)c1` [Example J17]: 610 nM.
With `Cc1c(C)c(Cc2ccc(C(=O)NNc3cc(C)c4c(C)nn(C)c4n3)o2)c(C)c(Cc2ccc(C(=O)NNc3cc(C)c4c(C)nn(C)c4n3)o2)c1C` [Example J29, 3-(2,3,4,6-Tetramethyl-5-{5-[N′-(1,3,4-trimethyl-1H-pyrazolo[3,4-b]pyridin-6-yl)-hydrazinocarbonyl]-furan-2-ylmethyl}-benzyl)-furan-1-carboxylic acid N′-(1,3,4-trimethyl-1H-pyrazolo[3,4-b]pyridin-6-yl)-hydrazide], the Ki is 5230 nM.
Consider `Cc1cc2c(cc1Oc1ccc(C(=O)NNc3nc(N)nc(C4CC4)n3)o1)C(C)(C)CC2` [Example I13, N′-(4-Amino-6-cyclopropyl-1,3,5-triazin-2-yl)-5-[(3,3,6-trimethyl-2,3-dihydro-1H-inden-5-yl)oxy]-2-furohydrazide], for which the Ki is 40 nM.
Turning to `COc1cc2c(cc1Cc1ccc(C(=O)NNc3nccc(NCC4CCCO4)n3)o1)C(C)(C)CCC2(C)C` (stereo not drawn) [Example C7], the Ki was 1740 nM.
`Cc1cc2c(cc1Oc1ccc(C(=O)NNc3ccc(S(N)(=O)=O)cc3)o1)C(C)(C)CC2` [Example I14, 4-(2-{5-[(3,3,6-Trimethyl-2,3-dihydro-1H-inden-5-yl)oxy]-2-furoyl}hydrazino)benzenesulfonamide]: the Ki was 225 nM.
Turning to `Cc1cc(C)cc(NNC(=O)c2ccc(Cc3cc4c(cc3C)C(C)(C)CCC4(C)C)o2)c1` [Example B2, N′-(3,5-dimethylphenyl)-5-[(3,5,5,8,8-pentamethyl-5,6,7,8-tetrahydro-2-naphthalenyl)methyl]-2furohydrazide], the Ki is 310 nM.
For the compound `Cc1cc(C)c(Cc2ccc(C(=O)NNc3cc(C)c4c(C)nn(C)c4n3)o2)c(C)c1` [Example J3, 5-(Mesitylmethyl)-N′-(1,3,4-trimethyl-1H-pyrazolo[3,4-b]pyridin-6-yl)-2-furohydrazide], the Ki was 400 nM.
Take `CCN(CC)C(=O)c1ccc(C)c(Oc2ccc(C(=O)NNc3cc(C)c4c(C)nn(C)c4n3)o2)c1` [Example H1, N,N-diethyl-4-methyl-3-[(5-{[2-(1,3,4-trimethyl-1H-pyrazolo[3,4-b]pyridin-6-yl)hydrazino]carbonyl}-2-furyl)oxy]benzamide]: the Ki is 5600 nM.
As to `Cc1cc(NNC(=O)c2ccc(Oc3cc4c(cc3Cl)NC(=O)CC4(C)C)o2)nc2c1c(C)nn2C` [Example L1], the Ki is 2110 nM.
`Cc1cc2c(cc1Oc1ccc(C(=O)NNc3ccc(C(F)(F)F)cn3)o1)C(C)(C)OC2` [Example N4, 5-(3,3,6-Trimethyl-1,3-dihydro-isobenzofuran-5-yloxy)-furan-2-carboxylic acid N′-(5-trifluoromethyl-pyridin-2-yl)-hydrazide]: the Ki is 1500 nM.
As for `COc1ccc(OC)c(OC)c1Cc1ccc(C(=O)NNc2cc(C)c3c(C)nn(C)c3n2)o1` [Example J9, 5-(2,3,6-trimethoxybenzyl)-N′-(1,3,4-trimethyl-1H-pyrazolo[3,4-beta]pyridin-6-yl)-2-furohydrazide], the Ki was 4770 nM.
For `Cc1cc2c(cc1Cc1ccc(C(=O)NNc3c(Cl)cncc3Cl)o1)C(C)(C)CCC2(C)C` [Example C8, N′-(3,5-dichloro-4-pyridinyl)-5-[(3,5,5,8,8-pentamethyl-5,6,7,8-tetrahydro-2-naphthalenyl)methyl]-2-furohydrazide], the Ki was 410 nM.
As to `Cc1cccc(C)c1SCc1ccc(C(=O)NNc2cc(C)c3c(C)nn(C)c3n2)o1` [Example J25, 5-{[(2,6-dimethylphenyl)sulfanyl]methyl}-N′-(1,3,4-trimethyl-1H-pyrazolo[3,4-b]pyridin-6-yl)-2-furohydrazide], the Ki is 1670 nM.
For the compound `Cc1cc(O)ccc1Cc1ccc(C(=O)NNc2cc(C)c3c(C)nn(C)c3n2)o1` [Example J21, 5-(4-Hydroxy-2-methylbenzyl)-N′-(1,3,4-trimethyl-1H-pyrazolo[3,4-b]pyridin-6-yl)-2-furohydrazide], the Ki is at least 10000 nM.
In the case of `COc1cc(OC)c(OC)cc1Cc1ccc(C(=O)NNc2cc(C)c3c(C)nn(C)c3n2)o1` [Example J14, 5-(2,4,5-trimethoxybenzyl)-N-(1,3,4-trimethyl-1H-pyrazolo[3,4-b]pyridin-6-yl)-2-furohydrazide], the Ki is over 10000 nM.
